IC50 data for 13 compounds are collected here from patent publication US12053451B2, “Arginase inhibitors and their therapeutic applications” (OncoArendi Therapeutics S.A., priority 2016, dated 2024).

Assay [1] addresses T1, intracellular arginase in macrophages isolated from murine bone marrow (BMDM) (Mus musculus, UniProt Q61176).
T1 construct: endogenous in cells; host or cells: primary bone marrow derived macrophages from Balb/c mice, M-CSF and IL-4 treated
T1 sequence (Q61176 1-323): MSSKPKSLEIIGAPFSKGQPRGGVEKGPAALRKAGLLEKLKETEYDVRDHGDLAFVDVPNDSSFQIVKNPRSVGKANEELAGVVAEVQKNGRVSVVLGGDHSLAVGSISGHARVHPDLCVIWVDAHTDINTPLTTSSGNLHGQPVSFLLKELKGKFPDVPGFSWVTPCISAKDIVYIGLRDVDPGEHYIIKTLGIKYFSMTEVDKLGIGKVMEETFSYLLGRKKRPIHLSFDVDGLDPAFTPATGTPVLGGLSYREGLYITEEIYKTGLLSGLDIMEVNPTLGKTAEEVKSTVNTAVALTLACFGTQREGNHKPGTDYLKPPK
The assay is described as follows: Cell-based assay: intracellular arginase in bone marrow derived macrophages (BMDM), urea level. The arrangement: species or system Balb/c mice. The conditions noted are these: murine BMDM with M-CSF and IL-4, urea measured 24 hours after compound; * = most potent diastereoisomer or mixture of diastereoisomers; read-out: Activity Class (BMDM). How it is done: Efficacy of Selected Examples Towards Intracellular Arginase in Macrophages Isolated from Murine Bone Marrow—Bone Marrow Derived Macrophages (BMDM)
Materials & Methods: The assay was performed according to modified literature protocol modification (Pineda-Torra I et al., Methods Mol Biol. 2015; 1339:101-9. Mia S et al. Scand J Immunol. 2014 May; 79(5):305-14). The femurs and tibias were isolated from Balb/c mice. Bones were cleaned from all attached tissues by using sterile swab without affecting the bone structure. Bones were sterilized by immersion in 70% ethanol for 5 min and then rinsed in PBS. The sides of the bones were cut off and flush with cold sterile PBS by using 26-G needle S into a 50 mL sterile tube with a cell strainer (Falcon™, Cat. No. U00149), until bone cavity appeared white. Then the cells were centrifuged (5 min at 500×G, 4° C.), washed twice with PBS and counted. Cells were plated in Petri dish in density of 1×10^6/mL and cultured in DMEM (Gibco, Cat. No. 31331-029) with 10% FBS, 1% pen-strep and 50 ng/mL M-CSF (PeproTech, Cat. No. 315-02), (37° C., 5% CO2). After five days cells were subcultured into P96 plate (BD, Cat. No. 353072) in density of 64 000 cells/well in medium supplemented with 50 ng/mL M-CSF and 20 ng/mL IL-4 (Biomibo Cat. No. 214-1). One day later exemplary compounds (dissolved in PBS) were added in several different concentrations and 24 hours later the level of urea was measured in each well (Jung D et al., Clin Chem. 1975, 21(8):1136-40). The concentration of urea in the absence of any compound was considered as the maximum. The absorbance of cell culture media (background) was subtracted from all the values.
(§1) For selected examples the activity class for ARG2 was estimated based on % of inhibition for 1 μM and 100 μM concentration of tested compounds.

In assay [2] the target is T2, recombinant human arginase 2 (Homo sapiens, UniProt P78540).
T2 construct: made in house; host or cells: CHO
T2 sequence (P78540 23-354): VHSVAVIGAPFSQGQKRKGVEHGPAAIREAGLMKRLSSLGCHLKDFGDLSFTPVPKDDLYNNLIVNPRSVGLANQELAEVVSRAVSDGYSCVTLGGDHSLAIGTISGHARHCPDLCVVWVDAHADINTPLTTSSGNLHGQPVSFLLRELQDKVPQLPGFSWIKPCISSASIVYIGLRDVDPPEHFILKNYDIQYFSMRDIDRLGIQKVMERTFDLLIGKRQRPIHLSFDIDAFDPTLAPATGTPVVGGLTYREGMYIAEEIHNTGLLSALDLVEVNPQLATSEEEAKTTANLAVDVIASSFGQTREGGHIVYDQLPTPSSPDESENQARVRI
As to the kind of experiment: Human arginase activity assay (urea measurement), arginase 2. It is filed as biochemical. The conditions noted are these: for selected examples class estimated from % of inhibition at 1 μM and 100 μM, * = most potent diastereoisomer or mixture of diastereoisomers, read-out: Activity Class (ARG II). How it is done: (§2) Human Arginase Activity Assay
An enzymatic assay with recombinant human arginases 1 (Biolegend, Cat. No. 552502) and 2 (homemade in eukaryotic expression system of CHO, purified by FPLC) was used in order to assess inhibitory activity of the compounds. The assay was run in the 96-well plate format, each reaction in the total volume of 100 uL. The assay is based on urea measurement, which is a product of L-arginine enzymatic degradation. (Baggio et al. J Pharmacol. Exp. Ther. 1999, 290, 1409-1416). The color product is developed by adding a mixture of reagent A (4 mM oPA in 50 mM boric acid in 1M sulfuric acid, 0.03% Brij-35) and reagent B (4 mM NED in 50 mM boric acid in 1M sulfuric acid, 0.03% Brij-35) in equal proportions. The absorbance for each well was measured at 530 nm.
(§3) Briefly, to each well of a 96-well microtiter plate 40 μL of enzyme in the reaction assay buffer (pH 7.4, 100 mM sodium phosphate buffer, 130 mM NaCl, 1 mg/mL albumin), 50 μL of the test compound solution and 10 μL of enzyme substrate solution (L-arginine hydrochloride, natural pH 5.6, final concentration 20 mM and a cofactor—manganese chloride, final concentration 150 μM) was added. For positive control, only the enzyme and substrate were used, the negative controls contained substrate solution with assay buffer. After incubating the microtiter plate at 37° C. for 60 min 150 μL of mixed reagents A and B was added to each well to stop the reaction. Absorbance was measured (λ=530 nm) 20 minutes later, after color development. The urea production in the absence of any compound was considered the maximum arginase activity. The absorbance in the absence of arginase (background) was subtracted from all the values. The normalized OD was used to generate a concentration-response curve by plotting the percent of inhibition against log[concentration] of the compound and using regression analysis (GraphPad Prism 7.0) to compute the IC50 values.
as §1

For assay [3], the target named is T3, recombinant human arginase 1 (Homo sapiens, UniProt P05089).
T3 construct: purchased Biolegend 552502
T3 sequence (P05089 1-322): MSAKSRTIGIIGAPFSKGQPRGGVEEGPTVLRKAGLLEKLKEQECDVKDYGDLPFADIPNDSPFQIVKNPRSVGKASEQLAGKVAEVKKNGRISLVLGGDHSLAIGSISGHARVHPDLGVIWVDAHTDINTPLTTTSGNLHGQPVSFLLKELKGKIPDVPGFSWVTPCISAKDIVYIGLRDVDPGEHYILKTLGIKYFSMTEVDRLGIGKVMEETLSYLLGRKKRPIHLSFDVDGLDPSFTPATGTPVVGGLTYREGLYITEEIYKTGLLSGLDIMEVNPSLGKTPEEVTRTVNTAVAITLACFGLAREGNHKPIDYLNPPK
As to the kind of experiment: Human arginase activity assay (urea measurement), arginase 1. It counts as biochemical. The conditions noted are these: recombinant human arginase 1, pH 7.4, 37° C., 60 min; * = value for the most potent diastereoisomer or the mixture of diastereoisomers; read-out: Activity Class (ARG I). On the procedure:
as §2
The assay was run in the 96-well plate format, each reaction in the total volume of 100 uL. The assay is based on urea measurement, which is a product of L-arginine enzymatic degradation. […] The color product is developed by adding a mixture of reagent A (4 mM oPA in 50 mM boric acid in 1M sulfuric acid, 0.03% Brij-35) and reagent B (4 mM NED in 50 mM boric acid in 1M sulfuric acid, 0.03% Brij-35) in equal proportions. The absorbance for each well was measured at 530 nm.
as §3, with “For” for “Briefly, to each well of a 96-well microtiter plate 40 μL of enzyme in the reaction assay buffer (pH 7.4, 100 mM sodium phosphate buffer, 130 mM NaCl, 1 mg/mL albumin), 50 μL of the test compound solution and 10 μL of enzyme substrate solution (L-arginine hydrochloride, natural pH 5.6, final concentration 20 mM and a cofactor—manganese chloride, final concentration 150 μM) was added. For”

Structures can show the parent of a compound that is named as a salt.

Take `N[C@@]1(C(=O)O)CCC[C@@H](CCB(O)O)C1` (racemic) [Example 10, rac-(1S,3R)-1-Amino-3-(2-boronoethyl)cyclohexane-1-carboxylic acid hydrochloride]: the IC50 in assay [1] is 10000 to 100000 nM; in assay [2], 1000 to 10000 nM; in assay [3], 1000 to 10000 nM.

`CN(C)C[C@H]1CC[C@@H](CCB(O)O)C[C@]1(N)C(=O)O` (racemic) [Example 18, rac-(1R,2R,5R)-1-Amino-5-(2-boronoethyl)-2-((dimethylamino)methyl)-cyclohexane-1-carboxylic acid dihydrochloride]: the figures for the IC50 in assay [1], in assay [2] and in assay [3] were 100 to 1000 nM, 1000 to 10000 nM and 100 to 1000 nM, respectively.

Take `N[C@]1(C(=O)O)C[C@H](CCB(O)O)CC[C@H]1CN1CCCC1` (racemic) [Example 22, rac-(1R,2S,5R)-1-Amino-5-(2-boronoethyl)-2-(pyrrolidin-1-ylmethyl)-cyclohexane-1-carboxylic acid dihydrochloride]: the IC50 in assay [1] is 100 to 1000 nM; in assay [2], 100 to 1000 nM; in assay [3] it was 1 to 100 nM.

On to `CC1(C)CCN(C[C@@H]2CC[C@@H](CCB(O)O)C[C@]2(N)C(=O)O)CC1` (racemic) [Example 26, rac-(1R,2S,5R)-1-amino-5-(2-boronoethyl)-2-((4,4-dimethylpiperidin-1-yl)methyl)cyclohexanecarboxylic acid dihydrochloride], for which the IC50 in assay [1] was 1000 to 10000 nM; in assay [2] it was 100 to 1000 nM; in assay [3], 100 to 1000 nM.

As to `CN(Cc1ccc(Cl)c(Cl)c1)C[C@@H]1CC[C@@H](CCB(O)O)C[C@]1(N)C(=O)O` (racemic) [Example 28, rac-(1R,2S,5R)-1-amino-5-(2-boronoethyl)-2-(((3,4-dichlorobenzyl)(methyl)amino)methyl)cyclohexanecarboxylic acid dihydrochloride], the IC50 was 10000 to 100000 nM in assay [1], 100 to 1000 nM in assay [2] and 100 to 1000 nM in assay [3].

As to `CCN(CC)C[C@@H]1CC[C@@H](CCB(O)O)C[C@]1(N)C(=O)O` (racemic) [Example 30, rac-(1R,2S,5R)-1-amino-5-(2-boronoethyl)-2-((diethylamino)methyl)cyclohexanecarboxylic acid dihydrochloride], the IC50 in assay [1], in assay [2] and in assay [3] was 100 to 1000 nM each time.

Regarding `N[C@]1(C(=O)O)C[C@H](CCB(O)O)CC[C@H]1CN1CCCCC1` (racemic) [Example 31, rac-(1R,2S,5R)-1-amino-5-(2-boronoethyl)-2-(piperidin-1-ylmethyl)cyclohexanecarboxylic acid dihydrochloride], the figures for the IC50 in assay [1], in assay [2] and in assay [3] were 1 to 100 nM, 100 to 1000 nM and 1 to 100 nM, respectively.

With `CC(C)N(C)C[C@@H]1CC[C@@H](CCB(O)O)C[C@]1(N)C(=O)O` (racemic) [Example 32, rac-(1R,2S,5R)-1-amino-5-(2-boronoethyl)-2-((isopropyl(methyl)amino)methyl)cyclohexanecarboxylic acid], the IC50 in assay [1] and in assay [3] was 100 to 1000 nM throughout.

With `CC(C)(C)NC[C@@H]1CC[C@@H](CCB(O)O)C[C@]1(N)C(=O)O` (racemic) [Example 33, rac-(1R,2S,5R)-1-amino-5-(2-boronoethyl)-2-((tert-butylamino)methyl)cyclohexanecarboxylic acid dihydrochloride], the IC50 in assay [1] was 100 to 1000 nM; in assay [3], 1 to 100 nM.

With `N[C@]1(C(=O)O)C[C@H](CCB(O)O)CC[C@H]1CN1C2CCC1CC2` (racemic) [Example 34, rac-(1R,2S,5R)-2-(7-azabicyclo[2.2.1]heptan-7-ylmethyl)-1-amino-5-(2-boronoethyl)cyclohexanecarboxylic acid dihydrochloride], the values for the IC50 in assay [1] and in assay [3] were 100 to 1000 nM and 1 to 100 nM, respectively.

`N[C@@]1(C(=O)O)CNC[C@@H](CCB(O)O)C1` (racemic) [Example 57, rac-(3R,5S)-3-amino-5-(2-boronoethyl)piperidine-3-carboxylic acid dihydrochloride]: the IC50 in assay [1] lay within 10000 to 100000 nM; in assay [3] it was 1000 to 10000 nM.

`CN(Cc1ccccc1)CC1CCC(CCB(O)O)CC1(N)C(=O)O` (stereo not drawn) [Example 21, 1-Amino-2-((benzyl(methyl)amino)methyl)-5-(2-boronoethyl)cyclohexane-1-carboxylic acid dihydrochloride]: the figures for the IC50 in assay [2] and in assay [3] were 1000 to 10000 nM and 100 to 1000 nM, respectively.

In the case of `CC1=CCC(CCB(O)O)CC1(N)C(=O)O` (stereo not drawn) [Example 51, 1-amino-5-(2-boronoethyl)-2-methylcyclohex-2-enecarboxylic acid hydrochloride], the IC50 in assay [2] is 1000 to 10000 nM; in assay [3] it was 100 to 1000 nM.
